Patent US10766882B2, “1,2-naphthoquinone based derivative and method of preparing the same” (YUNGJIN PHARM. CO., LTD., priority 2013, dated 2020)

Assays:
Cells = test: Measurement of lactate change amount within cells; type: cell-based; details: PCA extract of cells, lactate measured from supernatant (Megazyme, K-LATE)
Experimental: Cells were treated with 400 μl of 6% PCA, and then collected and extracted. Centrifugation (13,000 rpm, 10 min) was performed. A precipitate was dried using a Speed-Vac and then a weight of dried precipitate was measured. A supernatant was neutralized using 400 μl of 1 M KOH and a final volume thereof was adjusted to 1 ml using 0.33 M KH2PO4/K2HPO4, pH 7.5. Centrifugation (13,000 rpm, 10 min) was performed and the amount of lactate was measured from a supernatant (Megazyme, K-LATE).

C57BL/6J Lep ob/ob mice = test: Weight loss effects in obese mice (ob/ob); type: in vivo; details: vs 0.1% SLS controls
Experimental: 10 week-old C57BL/6J Lep ob/ob mice having genetic obesity characteristics available from ORIENTBIO were prepared. Two mice were raised in each polycarbonate breeding cage (200 W×260 L×130H (mm), Three-shine) in which temperature was 20 to 24° C., relative humidity was 35 to 65%, illuminance was 150 to 300 lux, night and day were 12 hours, and exhaust was performed at 10 to 15 air changes per hour. As a feed, low fat diet (11.9 kcal % fat, 5053, Labdiet) manufactured by ORIENTBIO was used. The feed was contained in a feeder and free intake was allowed. As drinking water, water, which was contained in a 250 mL polycarbonate based bottle, purified through a filter and a sterilizer was used and free intake was allowed.
The compound according to Example 1 synthesized in the present invention was orally administered to three C57BL/6J Lep ob/ob mice in amounts of 40 mg/kg, 80 mg/kg, and 120 mg/kg, respectively, once every day for two weeks. For administration, a disposable syringe fitted with a sonde for oral administration was used and 10 ml/kg of the compound was orally administered into the stomach. As controls, three C57BL/6J Lep ob/ob mice were administered 0.1% sodium lauryl sulfate (SLS) in an amount of 120 mg/kg in the same manner as described above. After administration, a time-dependent weight increase ratio, weight change, and intake amount were measured and results are illustrated in FIG. 1 below.
Weights of the experimental animals were measured immediately before administration of a test material and seven times a week from an administration initiation day to a test termination day. Increased total weights were calculated by subtracting weights measured on an experiment initiation day from weights measured one day before an experiment termination day. Food intake amounts were calculated by measuring feed supply amounts and remaining amounts twice a week from an initiation day of test material administration to a test termination day for each individual. […]
(§1) Experiments were performed under the same conditions as in Experimental Example 3-1 except that 15 week-old C57BL/6J Lep ob/ob mice having genetic obesity characteristics available from ORIENTBIO were prepared, the compounds according to Examples 5 and 6 were administered to three C57BL/6J Lep ob/ob mice in an amount of 150 mg/kg, 150 mg/kg of 0.1% SLS was administered to each of three C57BL/6J Lep ob/ob mice as controls, and experiments were performed for a total of one week. Weight increase ratios, weight change, and intake amounts depending on administration time were measured and results are illustrated in FIG. 5 below.
as §1, with “that 10” for “that 15”, “Examples 8, 9,” for “Examples 5”, “and 12” for “and 6”, “FIG. 6” for “FIG. 5”
Experiments were performed under the same conditions as in Experimental Example 3-1 except that 6 week-old C57BL/6J Lep ob/ob mice having genetic obesity characteristics available from ORIENTBIO were prepared, the compounds according to Examples 17, 18, 22, and 23 were administered to three C57BL/6J Lep ob/ob mice in an amount of 100 mg/kg, 100 mg/kg of 0.1% SLS was administered to each of three C57BL/6J Lep ob/ob mice as controls, and experiments were performed for a total of one week. Weight increase ratios, weight change, and intake amounts depending on administration time were measured and results are illustrated in FIG. 10 below. […]

NQO1 protein = NQO1 protein (Homo sapiens, UniProt P15559); test: NQO1 activity measurement (cytochrome C reduction); type: biochemical; details: 5 ng NQO1 protein, 200 μM NADH, 77 μM cytochrome C, 37° C., absorbance 550 nm for 10 minutes
Experimental: An enzyme reaction solution included 25 mM Tris/HCl (pH 7.4), 0.14% bovine serum albumin, 200 μM NADH, 77 μM cytochrome C, and 5 ng of NQO1 protein. Enzymatic reaction was initiated by adding NADH and performed at 37° C. In this regard, a reaction rate was measured by observing absorbance, which was increased due to reduction of cytochrome C, at 550 nm for 10 minutes and NQO1 activity was represented as an amount of reduced cytochrome C [nmol cytochrome C reduced/min/μg protein].
Extinction coefficient for cytochrome C:21.1 mmol/L/cm=21.1 μmol/ml/cm

[1] = Exp. Ex. 3-3, FIG. 3: 11 week-old ob/ob mice, 100 mg/kg oral, total of 6 days
[2] = Exp. Ex. 3-4, FIG. 4: 12 week-old ob/ob mice, 150 mg/kg oral, one week
[3] = Exp. Ex. 3-5, FIG. 5: 15 week-old ob/ob mice, 150 mg/kg oral, one week
[4] = Exp. Ex. 3-6, FIG. 6: 10 week-old ob/ob mice, 150 mg/kg oral, one week
[5] = Exp. Ex. 3-7, FIG. 10: 6 week-old ob/ob mice, 100 mg/kg oral, one week
[6] = Exp. Ex. 3-8, FIG. 11: 10 week-old ob/ob mice, 150 mg/kg oral, five days

NQO1 protein, sequence (P15559 whole entry, species assumed): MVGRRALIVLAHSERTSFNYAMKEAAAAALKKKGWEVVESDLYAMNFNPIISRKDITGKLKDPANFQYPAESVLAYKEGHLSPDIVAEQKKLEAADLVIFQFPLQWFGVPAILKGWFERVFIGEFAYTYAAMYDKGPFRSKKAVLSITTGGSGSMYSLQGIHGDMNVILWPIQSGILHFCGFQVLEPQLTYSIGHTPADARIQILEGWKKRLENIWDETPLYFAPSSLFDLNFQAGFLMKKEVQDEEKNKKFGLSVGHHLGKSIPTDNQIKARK

Structure (SMILES): CC(C)c1nc2c(n1C)-c1ccccc1C(=O)C2=O [Example 3, 2-isopropyl-1-methyl-1H-naphtho[2,1-d]imidazole-4,5-dione]
- Lactate change amount within cells (nmol/mg cell) (Cells): 11.3 nmol/mg cell
- intake amount (C57BL/6J Lep ob/ob mice; [1]): significantly decreased
- weight increase ratio (C57BL/6J Lep ob/ob mice; [1]): significantly decreased
- NQO1 activity (5 μM, [nmol cytochrome C reduced/min/μg protein]) (NQO1 protein): 139 nmol cytochrome C reduced/min/μg protein

Structure (SMILES): O=C1C(=O)c2[nH]c(-c3ccccc3)nc2-c2ccccc21 [Example 4, 2-phenyl-3H-naphtho[2,1-d]imidazole-4,5-dione]
- Lactate change amount within cells (nmol/mg cell) (Cells): 9.1 nmol/mg cell
- weight change (C57BL/6J Lep ob/ob mice; [2]): significantly decreased
- weight increase ratio (C57BL/6J Lep ob/ob mice; [2]): significantly decreased
- NQO1 activity (5 μM, [nmol cytochrome C reduced/min/μg protein]) (NQO1 protein): 122 nmol cytochrome C reduced/min/μg protein

Structure (SMILES): CC(C)(C)c1nc2c([nH]1)C(=O)C(=O)c1ccccc1-2 [Example 5, 2-tert-butyl-3H-naphtho[2,1-d]imidazole-4,5-dione]
- Lactate change amount within cells (nmol/mg cell) (Cells): 8.5 nmol/mg cell
- intake amount (C57BL/6J Lep ob/ob mice; [2]): significantly decreased
- weight change (C57BL/6J Lep ob/ob mice; [2]): significantly decreased
- weight increase ratio (C57BL/6J Lep ob/ob mice; [2]): significantly decreased
- intake amount (C57BL/6J Lep ob/ob mice; [3]): significantly decreased
- weight change (C57BL/6J Lep ob/ob mice; [3]): significantly decreased
- weight increase ratio (C57BL/6J Lep ob/ob mice; [3]): significantly decreased
- NQO1 activity (5 μM, [nmol cytochrome C reduced/min/μg protein]) (NQO1 protein): 153 nmol cytochrome C reduced/min/μg protein

Structure (SMILES): O=C1C(=O)c2[nH]c(C3CCCCC3)nc2-c2ccccc21 [Example 6, 2-cyclohexyl-3H-naphtho[2,1-d]imidazole-4,5-dione]
- Lactate change amount within cells (nmol/mg cell) (Cells): 4.6 nmol/mg cell
- intake amount (C57BL/6J Lep ob/ob mice; [3]): significantly decreased
- weight change (C57BL/6J Lep ob/ob mice; [3]): significantly decreased
- weight increase ratio (C57BL/6J Lep ob/ob mice; [3]): significantly decreased
- NQO1 activity (5 μM, [nmol cytochrome C reduced/min/μg protein]) (NQO1 protein): 253 nmol cytochrome C reduced/min/μg protein

Structure (SMILES): CC(C)Cc1nc2c([nH]1)C(=O)C(=O)c1ccccc1-2 [Example 8]
- Lactate change amount within cells (nmol/mg cell) (Cells): 10.0 nmol/mg cell
- intake amount (C57BL/6J Lep ob/ob mice; [4]): significantly decreased
- weight change (C57BL/6J Lep ob/ob mice; [4]): significantly decreased
- weight increase ratio (C57BL/6J Lep ob/ob mice; [4]): significantly decreased
- NQO1 activity (5 μM, [nmol cytochrome C reduced/min/μg protein]) (NQO1 protein): 213 nmol cytochrome C reduced/min/μg protein

Structure (SMILES): CCc1nc2c([nH]1)C(=O)C(=O)c1ccccc1-2 [Example 9]
- Lactate change amount within cells (nmol/mg cell) (Cells): 8.0 nmol/mg cell
- intake amount (C57BL/6J Lep ob/ob mice; [4]): significantly decreased
- weight change (C57BL/6J Lep ob/ob mice; [4]): significantly decreased
- weight increase ratio (C57BL/6J Lep ob/ob mice; [4]): significantly decreased
- NQO1 activity (5 μM, [nmol cytochrome C reduced/min/μg protein]) (NQO1 protein): 172 nmol cytochrome C reduced/min/μg protein

Structure (SMILES): O=C1C(=O)c2[nH]c(C3CC3)nc2-c2ccccc21 [Example 12]
- Lactate change amount within cells (nmol/mg cell) (Cells): 7.0 nmol/mg cell
- intake amount (C57BL/6J Lep ob/ob mice; [4]): significantly decreased
- weight change (C57BL/6J Lep ob/ob mice; [4]): significantly decreased
- weight increase ratio (C57BL/6J Lep ob/ob mice; [4]): significantly decreased
- NQO1 activity (5 μM, [nmol cytochrome C reduced/min/μg protein]) (NQO1 protein): 184 nmol cytochrome C reduced/min/μg protein

Structure (SMILES): CC(C)c1nc2c([nH]1)C(=O)C(=O)c1cc(Cl)ccc1-2 [Example 17]
- Lactate change amount within cells (nmol/mg cell) (Cells): 6.0 nmol/mg cell
- intake amount (C57BL/6J Lep ob/ob mice; [5]): significantly decreased in some sections
- weight change (C57BL/6J Lep ob/ob mice; [5]): significantly decreased in some sections
- weight increase ratio (C57BL/6J Lep ob/ob mice; [5]): significantly decreased in some sections
- NQO1 activity (5 μM, [nmol cytochrome C reduced/min/μg protein]) (NQO1 protein): 206.9 nmol cytochrome C reduced/min/μg protein

Structure (SMILES): CC(C)c1nc2c([nH]1)C(=O)C(=O)c1cc(N)ccc1-2 [Example 18]
- Lactate change amount within cells (nmol/mg cell) (Cells): 6.6 nmol/mg cell
- intake amount (C57BL/6J Lep ob/ob mice; [5]): significantly decreased in some sections
- weight change (C57BL/6J Lep ob/ob mice; [5]): significantly decreased in some sections
- weight increase ratio (C57BL/6J Lep ob/ob mice; [5]): significantly decreased in some sections
- NQO1 activity (5 μM, [nmol cytochrome C reduced/min/μg protein]) (NQO1 protein): 177.5 nmol cytochrome C reduced/min/μg protein

Structure (SMILES): CC(C)c1nc2c([nH]1)C(=O)C(=O)c1cc(F)ccc1-2 [Example 22]
- Lactate change amount within cells (nmol/mg cell) (Cells): 7.3 nmol/mg cell
- intake amount (C57BL/6J Lep ob/ob mice; [5]): significantly decreased in some sections
- weight change (C57BL/6J Lep ob/ob mice; [5]): significantly decreased in some sections
- weight increase ratio (C57BL/6J Lep ob/ob mice; [5]): significantly decreased in some sections
- NQO1 activity (5 μM, [nmol cytochrome C reduced/min/μg protein]) (NQO1 protein): 206.1 nmol cytochrome C reduced/min/μg protein

Structure (SMILES): CC(C)c1nc2c([nH]1)C(=O)C(=O)c1cc(N(C)C)ccc1-2 [Example 23]
- Lactate change amount within cells (nmol/mg cell) (Cells): 5.6 nmol/mg cell
- intake amount (C57BL/6J Lep ob/ob mice; [5]): significantly decreased in some sections
- weight change (C57BL/6J Lep ob/ob mice; [5]): significantly decreased in some sections
- weight increase ratio (C57BL/6J Lep ob/ob mice; [5]): significantly decreased in some sections
- NQO1 activity (5 μM, [nmol cytochrome C reduced/min/μg protein]) (NQO1 protein): 78.4 nmol cytochrome C reduced/min/μg protein

Structure (SMILES): CCc1nc2c([nH]1)C(=O)C(=O)c1cc(F)ccc1-2 [Example 26]
- Lactate change amount within cells (nmol/mg cell) (Cells): 5.7 nmol/mg cell
- intake amount (C57BL/6J Lep ob/ob mice; [6]): significantly decreased in some sections
- weight change (C57BL/6J Lep ob/ob mice; [6]): significantly decreased in some sections
- weight increase ratio (C57BL/6J Lep ob/ob mice; [6]): significantly decreased in some sections
- NQO1 activity (5 μM, [nmol cytochrome C reduced/min/μg protein]) (NQO1 protein): 223.5 nmol cytochrome C reduced/min/μg protein

Structure (SMILES): CCc1nc2c([nH]1)C(=O)C(=O)c1cc(NCc3ccc(F)cc3)ccc1-2 [Example 47]
- Lactate change amount within cells (nmol/mg cell) (Cells): 5.9 nmol/mg cell
- NQO1 activity (5 μM, [nmol cytochrome C reduced/min/μg protein]) (NQO1 protein): 41.0 nmol cytochrome C reduced/min/μg protein

Structure (SMILES): CC(C)(C)OC(=O)N(Cc1nc2c([nH]1)C(=O)C(=O)c1ccccc1-2)c1ccccc1 [Example 48]
- Lactate change amount within cells (nmol/mg cell) (Cells): 5.1 nmol/mg cell
- NQO1 activity (5 μM, [nmol cytochrome C reduced/min/μg protein]) (NQO1 protein): 59.8 nmol cytochrome C reduced/min/μg protein

Structure (SMILES): O=C1C(=O)c2[nH]c(CNc3ccccc3)nc2-c2ccccc21 [Example 49]
- Lactate change amount within cells (nmol/mg cell) (Cells): 5.2 nmol/mg cell
- NQO1 activity (5 μM, [nmol cytochrome C reduced/min/μg protein]) (NQO1 protein): 128.4 nmol cytochrome C reduced/min/μg protein

Structure (SMILES): O=C1C(=O)c2[nH]c(COc3ccccc3)nc2-c2ccccc21 [Example 78]
- Lactate change amount within cells (nmol/mg cell) (Cells): 8.0 nmol/mg cell
- NQO1 activity (5 μM, [nmol cytochrome C reduced/min/μg protein]) (NQO1 protein): 81.7 nmol cytochrome C reduced/min/μg protein
